Source: patent US12257283B2 (priority 2019, dated 2025)
Read-outs that look alike come from different tables or passages of the source.

What was measured:
cocaine reward = conditions: literature data, cited from earlier work
[1] = test system: cocaine locomotor activation; conditions: literature data, cited from earlier work
cocaine taking = conditions: literature data; cited from earlier work
[2] = biological target: chemokine receptors CCR2/CCR5; format: biochemical; conditions: inhibition of chemokine receptors CCR2/CCR5; read-out: Potency EC50
Text: Table 1 illustrates the potencies of several peptides of the invention to inhibit chemokine receptors CCR2/CCR5. These receptor-active peptides (Receptides, abbreviated as RAP's) represent a novel, safe and non-addictive pharmacological intervention for substance abuse disorders by normalizing the neurobiology of addiction to suppress drug-seeking behaviors, reduce psychostimulant (cocaine, methamphetamine) activation and locomotion, and inhibit consumption of alcohol, other drugs of abuse and substance abuse in general. They may also treat depression and anxiety as those commonly occur in substance abuse. […] Decades-old treatments (methadone, buprenorphine etc.) require extended use, suffer from high recidivism, are only partly effective and are clearly inadequate. New treatments with no abuse liability, that blunt drug-seeking, dependence, and facilitate recovery and withdrawal are a priority need.

[3] = test system: streptozotocin (STZ) induced diabetic rats
Procedure: Rats were fasted overnight and received a single intraperitoneal injection of streptozotocin (60 mg/kg, Sigma-Aldrich) in citrate buffer (pH 4.5) to induce type I diabetes. The induction of diabetes was confirmed 72 h after streptozotocin injection by measurement of blood glucose levels using Contour® blood glucose diagnostic kit (Bayer HealthCare, Canada). Body weight and blood glucose levels were measured before and 3 days after streptozotocin injection, once a week for three weeks after diabetes induction. Only rats having blood glucose concentration consistently higher than 300 mg/dl were used for the present study. […]
(§1) Tactile allodynia Mechanical sensitivity was assessed using calibrated von Frey hairs (7). Animals were placed in Plexiglas boxes on an elevated metal mesh floor and allowed 60 min for habituation before testing. A series of von Frey filaments with logarithmically incrementing stiffness was applied perpendicular to the mid-plantar region of the hind paw. The 50% paw withdrawal threshold was determined using Dixon's up-down method. Withdrawal thresholds of both paws were averaged as one single value per animal. Assessment on the effects of RAP103 on mechanical and cold allodynia was performed between 2-4 hours following the drug administration. […] All data were presented as means±SEM. Statistical analysis was performed by two-way ANOVA followed by Bonferroni post-tests. The criterion for statistical significance was P<0.05.

[4] = test system: STZ induced diabetic rats; conditions: oral administration
Procedure: (§2) Rats were fasted overnight and received a single intraperitoneal injection of streptozotocin (60 mg/kg, Sigma-Aldrich) in citrate buffer (pH 4.5) to induce type I diabetes. The induction of diabetes was confirmed 72 h after streptozotocin injection by measurement of blood glucose levels using Contour® blood glucose diagnostic kit (Bayer HealthCare, Canada). Body weight and blood glucose levels were measured before and 3 days after streptozotocin injection, once a week for three weeks after diabetes induction. Only rats having blood glucose concentration consistently higher than 300 mg/dl were used for the present study.
The treatment lasted for 8 days Note, n=5 for H2O and n=7 for RAP-103/each dose.
as §1, with “Statistical analysis was performed by two-way ANOVA followed by Bonferroni post-tests. The criterion for statistical significance was P<0.05.” left out

CCL2, CCL3 = test system: CCL2, CCL3
Text: Because opioids are used in the management of pain conditions that contribute to OUD, we determined the efficacy of a small peptide chemokine receptor antagonist RAP-103 (all-D-TTNYT, SEQ ID #1, Table 1), sometimes called RAP-103 or R103) to reverse opioid receptor analgesic tolerance and block pain as a test of its ability to block-drug seeking behaviors. Painful diabetic neuropathy (PDN) is a common complication of diabetes which adversely affects patients' daily life, often involves opioid use, which creates an addiction risk. […] To test the hypothesis, we first used behavioral and molecular/cellular approaches to explore chronic pain development and inflammatory reaction in Streptozotocin (STZ) induced diabetic rats. […] CCL2 and CCL3 are two chemokines well known in mediating immune cell trafficking and immune response in the context of neuropathic pain.
as §2

[5] = test system: cocaine induced locomotor behavior; conditions: rats, 0.001, 0.01, 0.03 mg/kg, p.o., 30 min before cocaine 10 mgs/Kg
Procedure: Locomotor activity (ambulation+stereotypy) induced by cocaine and the effect of RAP-103 was assessed using a Digiscan DMicro system. Following a 60-min habituation in activity chambers, rats were pretreated with RAP-103 (0.03, 0.01, 0.001 mgs/Kg) or vehicle 30 min before cocaine (10 mgs/Kg) or vehicle and activity was measured for 120 min. Differences between individual groups were determined with a Bonferroni post-hoc test. Statistical significance was set at p<0.05.

MOR-dependent rats = conditions: 0.5 mg/kg, naloxone 3 mg/kg SC on day 7, quantified for 60 min
Procedure: Opioid tolerance during chronic exposure requires increasing opioid doses to maintain analgesic efficacy. Physical dependence also develops during chronic opioid exposure and, upon discontinuation of opioid intake, presents as a withdrawal syndrome that triggers opioid relapse. We tested the effects of RAP-103 (0.5 mg/kg) on naloxone-precipitated withdrawal signs in MOR-dependent rats. To induce physical dependence we implanted opioid (heroine) containing pellets. On day 7 rats received naloxone (3 mg/kg, SC) with or without added RAP-103 and the withdrawal signs of wet dog shakes and eye blinking were quantified for 60 min.

[6] = test system: opioid self-administration; conditions: rats, MOR 0.25 mg/kg/inf
Text: Rats were surgically prepared to have indwelling catheters prior to self-administration testing. To begin each session, house lights were turned on and two retractable levers extended into the chamber. […] A 20-s timeout period will follow each infusion to limit possibility of overdose. […] The dependent variable measured will be the number of infusions earned by the end of the session and defined as the breakpoint. Total cumulative responses made by the rat on the active lever during each session will also be recorded. Once rats reach criteria for stable PR responding, which is defined as 3 consecutive days of responding without upward or downward variance (<20% change from mean number of reinforcers earned for 3 consecutive days), R103 (0.02, 0.1, and 0.5 mg/kg) will be administered 15 min before daily SA sessions to assess effects on breaking point and to obtain dose-effect data for R103. A repeated-measures 2-way ANOVA (R103 treatment, sex) between-subjects design followed by a Bonferroni test was used.

[7] = STZ diabetic rats, oral administration for 7 days

c1cc(CN2CCCNCCNCCCNCC2)ccc1CN1CCCNCCNCCCNCC1 [AMD3100, Plerixafor]
cocaine reward / conditioned place preference (CPP) (cocaine reward): inhibits cocaine reward | cocaine reward / conditioned place preference (CPP) (cocaine reward; listed as AMD 3100): inhibits conditioned place preference (CPP) | locomotor activation produced by an acute cocaine injection ([1]; 5, 10 mg/kg pretreatment): reduced locomotor activation | locomotor activation produced by cocaine [1]: inhibits | cocaine taking in rat self-administration assays (cocaine taking): inhibits

STNYT [SEQ ID No.: 3]
EC50 [2]: 3 pM

TTNYT [SEQ ID No.: 1, all-D-TTNYT]
neuropathic pain [3, 7]: reduced neuropathic pain | mechanical allodynia ([3]; STZ induced diabetic rats, oral administration): reversed mechanical allodynia | established hypersensitivity ([3]; STZ rats, 0.5-0.02 mg/Kg b.w., daily, for 7 days): complete reversal of established hypersensitivity | cold allodynia [4]: reversed cold allodynia | expression of chemokines and cytokines (CCL2, CCL3; [7]): inhibited expression of chemokines and cytokines | inflammation: CCL2 in the sciatic nerves (CCL2, CCL3; STZ rats, 0.5 mg/kg, for 7 days, p.o., FIG. 3A): significantly inhibited inflammation | inflammation: CCL3 in the sciatic nerves (CCL2, CCL3; STZ rats, 0.5 mg/kg, for 7 days, p.o., FIG. 3B): significantly inhibited inflammation | cocaine induced locomotor behavior (locomotor activity counts) ([5]; listed as RAP103): inhibited psychostimulant cocaine induced locomotor behavior | cocaine induced locomotor behavior (locomotor activity counts) ([5]; listed as RAP-103): blocks the locomotor inducing effects of cocaine | naloxone precipitated withdrawal signs (wet dog shakes and eye blink) (MOR-dependent rats; listed as RAP103): significantly inhibited naloxone precipitated withdrawal signs | naloxone precipitated withdrawal signs (wet dog shakes and eye blink) (MOR-dependent rats; listed as RAP-103): blocks naloxone-precipitated withdrawal signs | opioid self-administration by lever press for drug infusions [6]: significantly inhibited opioid self-administration | motivation to work for reinforcer (self-administer an opioid), progressive-ratio ([6]; R103 0.02, 0.1, and 0.5 mg/kg 15 min before sessions): significantly reduced

COc1ccc(C2(O)CCC(N3CC[C@@H](NC(=O)CNC(=O)c4cccc(C(F)(F)F)c4)C3)CC2)cn1 (some centres unmarked) [INCB 3284]
cocaine reward / conditioned place preference (CPP) (cocaine reward): prevented psychostimulant-induced CPP

SSTYR [SEQ ID No.: 2]
EC50 [2]: 1 pM

Maraviroc
cocaine reward / conditioned place preference (CPP) (cocaine reward): reduces rewarding | locomotor activation produced by cocaine [1]: reduces
